Experimental data from patent US5981562A, “Inhibitors of farnesyl-protein transferase” (Merck & Co., Inc., priority 1997, dated 1999).
Where a name gives a salt, the structure may show the parent alone.

Target: T1, human FPTase (Homo sapiens, UniProt P49354+P49356)
T1 construct: made in house
Assay: In vitro inhibition of human farnesyl-protein transferase
Type: biochemical
Conditions: [3H]-FPP, 100 nM Ras-CVIM, 30 min, read-out: IC50 against human FPTase

IC50: < 10 µM
Structure (SMILES): CC(=O)N(CCNc1cccc(Cl)c1)Cc1cncn1Cc1ccc(C#N)cc1 [Example 1, N-[1-(4-cyanobenzyl)-5-imidazolylmethyl]-N-[2-((3-chlorophenyl)amino)ethyl]acetamide dihydrochloride]
